{"source": "patent US9023803B2", "about": "“Cancer therapy based on tumor associated antigens derived from cyclin D1” (Immatics Biotechnologies GmbH, priority 2010, dated 2015)", "key": {"cancer patients": {"tested_on": "cancer patients", "assay": "Prevaccination T cell responses in cancer patients", "format": "in vivo, human", "conditions": "certain cancer patients", "source_text": "A further aspect of the invention then relates to the use of the peptide or combination according to the invention as a diagnostic tool in the diagnosis of cancer. Basically, the presence of the peptides or a combination thereof in the patient indicates cancer. […] Again, for the diagnosis, the peptides can be labeled. Furthermore, antibodies against the peptides (or combinations) can also be used. The diagnosis can be performed in vivo or in vitro."}, "HLA-A*26": {"tested_on": "HLA-A*26", "assay": "HLA-restriction: binding to HLA-A*26", "set-up": "species or system human"}, "HLA-A*02": {"tested_on": "HLA-A*02", "assay": "HLA-restriction: binding to HLA-A*02", "set-up": "species or system human"}, "HLA A*0201": {"biological_target": "HLA A*0201 (Homo sapiens, UniProt P04439, D140Y/D185E/D98H/E176V/E277Q/G131W/G231S/I119V/I121R/I166T/I218V/L300P/L318F/N151K/N90K/P208A/P217A/Q86G/Q94H/R138H/R169H/T345S)", "assay": "ELISA-based HLA binding method (Sylvester-Hvid et al., 2002)"}, "patients": {"tested_on": "patients", "assay": "Clinical study of vaccine IMA901 with or without prior cyclophosphamide", "format": "in vivo, human", "source_text": "(§1) Some patients received a prior TKI therapy with sunitinib or sorafenib, others a prior cytokine therapy with interferon or interleukin.\nBoth patient groups were followed up for progression-free survival (PFS) and overall survival (OS)."}, "[1]": {"tested_on": "HLA-A*02 positive tumor cells endogenously expressing Cyclin D1", "conditions": "allo-restricted T cells of HLA-A2-negative donors; cited from earlier work"}, "CTL": {"tested_on": "CTL", "conditions": "HLA-A2+ healthy donors, colon cancer and mantle cell lymphoma patients; CD40-activated B cells as APCs; cited from earlier work"}, "HLA-A*68": {"tested_on": "HLA-A*68", "assay": "HLA-restriction: binding to HLA-A*68", "set-up": "species or system human"}, "HLA class-II": {"tested_on": "HLA class-II", "assay": "HLA-restriction: binding to HLA class-II", "set-up": "species or system human"}, "regulatory T cells": {"tested_on": "regulatory T cells", "conditions": "low-dose cyclophosphamide 300 mg/m^2 single infusion before vaccination", "source_text": "Absolute counts are shown in (A), percent change from baseline is shown in (B).\nas §1"}}, "data": [{"compound": "YLSGANLNL (listed as Homo sapiens) [CEA-004]", "values": [{"measurement": "prevaccination responses", "setting": "cancer patients", "result": "found"}]}, {"compound": "EVFPLAMNY (listed as Homo sapiens) [CCN-004, cyclin D1-derived peptide, aa 76-84]", "values": [{"measurement": "binding to HLA-A*26", "setting": "HLA-A*26", "result": "high binding"}, {"measurement": "binding to HLA-A*02", "setting": "HLA-A*02", "result": "practically no binding"}]}, {"compound": "ALLESSLRQA (listed as Homo sapiens) [CCN-007, cyclin D1-derived peptide, aa 253-262]", "values": [{"measurement": "binding to HLA-A*02", "setting": "HLA-A*02", "result": "moderate binder"}]}, {"compound": "LLGATCMFV (listed as Homo sapiens) [CCN-001, cyclin D1-derived peptide, aa 101-109]", "values": [{"measurement": "binding to HLA A*0201", "setting": "HLA A*0201", "result": "Good binding"}, {"measurement": "survival of patients responding against CCN-001 versus non-CCN-001-responding patients", "setting": "patients; all vaccinated patients", "result": "significant longer survival"}, {"measurement": "favorable effect of T cell response against CCN-001 on survival", "setting": "patients; patient group pretreated with cyclophosphamide", "result": "even more evident"}, {"measurement": "prevaccination responses", "setting": "cancer patients", "result": "found"}, {"measurement": "lysis of Cyclin D1 expressing HLA-A*02 positive tumor cells by T cell clones recognizing the peptide", "setting": "[1]", "result": "could lyze"}, {"measurement": "generation of CTL specific for the epitope", "setting": "CTL", "result": "could be generated"}]}, {"compound": "ETIPLTAEKL [CCN-006]", "values": [{"measurement": "binding to HLA-A*68", "setting": "HLA-A*68", "result": "seems to be a HLA-A*68 binder"}]}, {"compound": "NPPSMVAAGSVVAAV (listed as Homo sapiens) [CCN-003, cyclin D1-derived peptide, aa 198-212]", "values": [{"measurement": "HLA restriction", "setting": "HLA class-II", "result": "DRB1*0401 restricted"}, {"measurement": "binding to HLA class-II", "setting": "HLA class-II", "result": "binds"}]}, {"compound": "O=P1(N(CCCl)CCCl)NCCCO1", "note": "(stereo not drawn) [cyclophosphamide, reference compound]", "values": [{"measurement": "outcome of the treatment using the vaccine after prior low-dose cyclophosphamide", "setting": "patients; single infusion 300 mg/m^2 before IMA901", "result": "significantly improved"}, {"measurement": "number of regulatory T cells", "setting": "regulatory T cells", "result": "reduced"}]}]}
